The target in data set [1] is T1, PSMA (Homo sapiens, UniProt Q04609).
T1 construct: 10^5 LNCaP cells per well were incubated with 0.75 nM [^68Ga]Ga-PSMA-10; host or cells: LNCaP
Particulars: LNCaP cells, read-out: Ki ± SD, cited from earlier work.

Data set [2] concerns PSMA-positive LNCaP cells. Particulars: cited from earlier work.
On the set-up of data set [3]: method as in Sinnes et al. [2019]. Particulars: ref Sinnes et al. [2019], in % (unit assumed), cited from earlier work.
Details of data set [4]: method as in Sinnes et al. [2019]. Particulars: HS, ref Sinnes et al. [2019], in % (unit assumed), cited from earlier work.
Details of data set [5]: method as in Sinnes et al. [2019]. Particulars: PBS, ref Sinnes et al. [2019], in % (unit assumed), cited from earlier work.
The subject of data set [6] is PSMA-positive LNCaP cells. As to the kind of experiment: Internalization studies in LNCaP cells. Format: cell-based, human. Particulars: for specific internalization or cell surface binding: PSMA-positive LNCaP cells. As to the method:
(§1) The in vitro experiments were performed using the PSMA-positive LNCaP cell line (androgen-sensitive human lymph node metastatic lesion of prostatic adenocarcinoma, CRL-1740 [American Type Culture Collection]) (Benešová et al. [2015]). For negative control, PSMA-PC3 cells (bone metastasis of a grade IV prostatic adenocarcinoma, ATCC CRL-1435) were used (Eder et al. [2012a]). The cells were cultured in RPMI1640 medium supplemented with 10% fetal calf serum and L-glutamine and incubated at 37 °C in an environment of humidified air containing 5% CO2. The cells were harvested using trypsin-ethylenediaminetetraacetic acid (trypsin-EDTA; 0.05% trypsin, 0.02% EDTA, all from PAN Biotech).
For internalization studies 10^5 LNCaP or PC3 cells were seeded in poly(L-lysine)-coated 24-well cell culture plates at 37 °C in an environment of humidified air containing 5% CO2 for 24 h. (Mier et al. [2007]). The medium is removed and 250 μl of radiolabeled 30 nM AAZTA^5-PSMA is replaced for 45 min. One plate is being incubated at 37 °C and the second one at 4 °C to inhibit the internalization. The specificity of the ligands is proofed by addition 500 μM of 2-(phosphonomethyl)-pentanedioic acid (2-PMPA, Axxora, Loerrach, Germany). After incubation, the cells were washed three times with 1 ml ice cold PBS. To determine the surface-bound activity cells were incubated twice with 0.5 ml of glycine-HCl in PBS (50 mM, pH 2.8) each for 5 min at room temperature. Both washing steps were collected for measuring with a gamma counter (Packard Cobra II, GMI, Minnesota, USA). Before lysating the cells with 0.5 mL of 0.3 M NaOH to determine the internalized fraction, they were once washed with 1 ml ice cold PBS (Eder et al. [2012a]).

Data set [7] relates to PC3 cells. Description: Internalization studies in PC3 cells (negative control). Type of data set: cell-based, human. Particulars: PSMA-negative PC3 cells. As to the method: as §1
For internalization studies 10^5 LNCaP or PC3 cells were seeded in poly(L-lysine)-coated 24-well cell culture plates at 37 °C in an environment of humidified air containing 5% CO2 for 24 h. (Mier et al. [2007]). The medium is removed and 250 μl of radiolabeled 30 nM AAZTA^5-PSMA is replaced for 45 min. One plate is being incubated at 37 °C and the second one at 4 °C to inhibit the internalization. The specificity of the ligands is proofed by addition 500 μM of 2-(phosphonomethyl)-pentanedioic acid (2-PMPA, Axxora, Loerrach, Germany). After incubation, the cells were washed three times with 1 ml ice cold PBS. […]

Setting [8] is: LNCaP cells, ref Benešová et al. [2015].

Usually Ki stands for the equilibrium dissociation constant of an inhibitor or competing ligand from its target.

Where two headings read alike, the source gives them in different places.

T1 sequence (Q04609 whole entry): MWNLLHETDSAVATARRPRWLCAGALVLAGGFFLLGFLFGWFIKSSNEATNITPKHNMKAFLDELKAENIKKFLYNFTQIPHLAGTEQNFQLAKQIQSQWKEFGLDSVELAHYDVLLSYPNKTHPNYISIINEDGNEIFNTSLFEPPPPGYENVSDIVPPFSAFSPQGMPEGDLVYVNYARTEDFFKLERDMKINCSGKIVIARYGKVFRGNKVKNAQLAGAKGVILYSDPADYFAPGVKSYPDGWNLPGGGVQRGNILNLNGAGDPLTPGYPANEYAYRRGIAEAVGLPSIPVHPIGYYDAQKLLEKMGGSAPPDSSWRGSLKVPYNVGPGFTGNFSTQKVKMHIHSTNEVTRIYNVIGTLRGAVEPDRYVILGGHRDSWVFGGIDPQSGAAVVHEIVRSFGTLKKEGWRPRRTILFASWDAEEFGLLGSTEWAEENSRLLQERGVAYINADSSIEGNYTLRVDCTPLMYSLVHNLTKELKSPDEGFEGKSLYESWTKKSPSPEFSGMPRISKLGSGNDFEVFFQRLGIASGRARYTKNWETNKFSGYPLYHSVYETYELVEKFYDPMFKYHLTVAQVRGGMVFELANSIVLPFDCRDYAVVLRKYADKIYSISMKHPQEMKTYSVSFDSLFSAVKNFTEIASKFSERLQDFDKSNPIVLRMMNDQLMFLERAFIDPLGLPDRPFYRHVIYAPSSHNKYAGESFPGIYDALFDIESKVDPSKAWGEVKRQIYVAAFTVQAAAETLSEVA

As to `O=C(O)CCC(NC(=O)NC(CCCCNC(=O)C(Cc1ccc2ccccc2c1)NC(=O)C1CCC(CNC(=O)CN2CCN(CC(=O)O)CCN(CC(=O)O)CCN(CC(=O)O)CC2)CC1)C(=O)O)C(=O)O.[Sc+3]` (stereo not drawn) [[^nat/44Sc]Sc-PSMA-617], the inhibitory constant (Ki) in data set [1] (ref Eppard et al. [2017]) was 4.7 ± 0.8 nM. For the same compound, the “Internalization ± SD” value in data set [2] (LNCaP cells, ref Eppard et al. [2017]) is 15.8 ± 2.1 %IA/10^6 cells.

`O=C(O)CCCCC1(N(CC(=O)O)CC(=O)O)CN(CC(=O)O)CCN(CC(=O)O)C1.[68Ga+3]` [[^68Ga]Ga-AAZTA^5]: the Stability values is listed as 84.3 ± 0.9 in data set [3] (DTPA, 0.5 h); 78.0 ± 1.4 in data set [3] (DTPA, 1 h); 45.7 ± 1.3 in data set [3] (DTPA, 2 h); 93.0 ± 0.2 in data set [3] (EDTA, 0.5 h); 50.3 ± 7.4 in data set [3] (EDTA, 1 h); 49.5 ± 2.5 in data set [3] (EDTA, 2 h). In addition, the Stability values in data set [4] (0.5 h) is recorded as 93.0 ± 0.8; in data set [4] (1 h), 92.7 ± 1.3; in data set [4] (2 h) it was 85.3 ± 3.4; in data set [5] (0.5 h), 97.5 ± 1.0; in data set [5] (1 h), 88.7 ± 0.5; in data set [5] (2 h), 78.5 ± 4.5.

On to `O=C(O)CCC(NC(=O)NC(CCCCNC(=O)C(Cc1ccc2ccccc2c1)NC(=O)C1CCC(CNC(=O)CN2CCN(CC(=O)O)CCN(CC(=O)O)CCN(CC(=O)O)CC2)CC1)C(=O)O)C(=O)O.[Lu+3]` (stereo not drawn) [[^nat/177Lu]Lu-PSMA-617], for which, in data set [1] (ref Benešová et al. [2015]), the Ki was 6.9 ± 1.3 nM. Also, the “Internalization ± SD” value in data set [2] (setting [8]) is listed as 17.5 ± 3.1 %IA/10^6 cells. For the same compound, the “%internalization / total cellular activity ratio” value in data set [2] (ref Umbricht et al. [2017]) is recorded as 10–15%; in data set [6] (LNCaP cells, 37 °C, surface versus internalized activity, this assay) it was 27%.

On to `O=C(O)CCCCC1(N(CC(=O)O)CC(=O)O)CN(CC(=O)O)CCN(CC(=O)O)C1.[44Sc+3]` [^44Sc AAZTA^5], for which the Stability values in data set [3] (DTPA, 1 h) was 94.3 ± 0.9; in data set [3] (DTPA, 4 h), 92.5 ± 0.5; in data set [3] (DTPA, 8 h), 93.8 ± 1.2; in data set [3] (DTPA, 24 h), 93.4 ± 1.1; in data set [3] (EDTA, 1 h), 93.7 ± 1.3; in data set [3] (EDTA, 4 h) it was 90.0 ± 3.2. Moreover, the Stability values is recorded as 92.3 ± 2.1 in data set [3] (EDTA, 8 h); 91.9 ± 1.8 in data set [3] (EDTA, 24 h); 93.7 ± 0.9 in data set [4] (1 h); 94.3 ± 1.7 in data set [4] (4 h); 93.2 ± 1.1 in data set [4] (8 h); 91.3 ± 1.8 in data set [4] (24 h). The Stability values was 95.3 ± 0.9 in data set [5] (1 h), 92.7 ± 1.3 in data set [5] (4 h), 95.9 ± 1.2 in data set [5] (8 h) and 96.0 ± 0.8 in data set [5] (24 h). Further, the “specific internalization or cell surface binding” value in data set [7] and in data set [6] was “no surface activity or internalization” each time.

For `O=C(O)CCCCC1(N(CC(=O)O)CC(=O)O)CN(CC(=O)O)CCN(CC(=O)O)C1.[177Lu+3]` [^177Lu AAZTA^5], the Stability values in data set [3] (DTPA, 1 h) is recorded as 99.1 ± 0.2; in data set [3] (DTPA, 2 h) it was 99.1 ± 0.1; in data set [3] (DTPA, 24 h), 80.4 ± 5.4; in data set [3] (DTPA, 7 d), 59.0 ± 14.3; in data set [3] (EDTA, 1 h), 98.9 ± 0.2; in data set [3] (EDTA, 2 h), 97.9 ± 0.3. Besides, the Stability values is 79.2 ± 2.9 in data set [3] (EDTA, 24 h); 48.9 ± 1.5 in data set [3] (EDTA, 7 d); 99.8 ± 0.1 in data set [4] (1 h); 99.7 ± 0.1 in data set [4] (2 h); 99.9 ± 0.1 in data set [4] (24 h); 82.5 ± 3.2 in data set [4] (7 d). For the same compound, the Stability values in data set [5] (1 h) is given as 97.8 ± 0.5; in data set [5] (2 h) it was 98.6 ± 0.4; in data set [5] (24 h), 99.1 ± 0.6; in data set [5] (7 d), 96.0 ± 0.8. Besides, the “specific internalization or cell surface binding” value in data set [7] and in data set [6] was “no surface activity or internalization” throughout.

`O=C(O)CCC(NC(=O)NC(CCCCNC(=O)C(Cc1ccc2ccccc2c1)NC(=O)C1CCC(CNC(=O)CN2CCN(CC(=O)O)CCN(CC(=O)O)CCN(CC(=O)O)CC2)CC1)C(=O)O)C(=O)O.[Ga+3]` (stereo not drawn) [[^nat/68Ga]Ga-PSMA-617]: the inhibition constant Ki in data set [1] (ref Benešová et al. [2015]) was 6.4 ± 1 nM. The “%internalization / total cellular activity ratio” value in data set [2] (setting [8]) is given as “around 45%”; in data set [2] (LNCaP cells, ref Benešová et al. [2015], listed as [^68Ga]Ga-DOTA-PSMA-617), 47%. In addition, the “Internalization ± SD” value in data set [2] (setting [8]) is recorded as 17.7 ± 4.4 %IA/10^6 cells.

Take `O=C([O-])CN(CCN(CC(=O)[O-])Cc1cc(CCC(=O)NCCCCCC(=O)NCCCC[C@H](NC(=O)N[C@@H](CCC(=O)O)C(=O)O)C(=O)O)ccc1[O-])Cc1cc(CCC(=O)O)ccc1[O-].[68Ga+3].[OH3+]` [[^nat/68Ga]Ga-PSMA-11]: the Ki in data set [1] (ref Eder et al. [2012a]) was 12 ± 2.8 nM. In addition, the “Internalization ± SD” value in data set [2] (setting [8]) is 9.5 ± 2.6 %IA/10^6 cells.

Values taken from publication PMC7691401, “^68Ga, ^44Sc and ^177Lu-labeled AAZTA^5-PSMA-617: synthesis, radiolabeling, stability and cell binding compared to DOTA-PSMA-617 analogues” (EJNMMI Radiopharmacy and Chemistry, 2020).
